Test results as given in patent US20220332839A1, “USE OF PRG4 TO TREAT CANCER” (Lubris LLC, priority 2019, published 2022).

What was measured:
Type in all cases: cell-based, human
[1] = tested on: MDA-MB-231 cells; experiment: In vitro trans-well invasion assay
Procedure: Overnight 0.2% FBS-containing DMEM incubated, i.e. serum-starved, MDA-MB-231 cells were used for the transwell invasion using polycarbonate filters (24-well insert, pore size 8 μm; BD Biosciences, Canada). Prior to addition of cells, each insert was placed within a well of a 24-well tissue culture plate and equilibrated with 0.5 mL serum-free DMEM, added both to the upper and lower chambers at 37° C. for 2 h. The equilibration media was then gently removed and upper chamber surface of the insert was coated with 50 μL of 3% Matrigel and allowed to solidify at 37° C. for 1 h. 1×10^5 serum-starved MDA-MB-231 cells were resuspended in 0.5 mL of serum-free DMEM and added to the upper Matrigel-coated chamber. 500 μL complete growth medium alone or containing specific reagents, as described in the respective figure descriptions, was added to the lower chambers. Cells were allowed to invade the matrix for 12 h at 37° C. after which non-adherent cells were removed by PBS washing of cell layers on the upper chamber three times. During the second wash a cotton tip applicator was used to gently scrape away the adherent cells on the upper surface of the membrane. Invading cells were fixed by immersing the transwell inserts in 100% methanol for 10 minutes at −20° C., followed by staining with 0.5% crystal violet dye (EMD Millipore, Canada) for 1 h at room temperature. Eight randomly chosen fields of each stained membrane were imaged at 10× objective of a DIC microscope (Olympus IX70) coupled to a digital camera. Cell numbers were obtained by counting the number of crystal violet stained cells in each field using a handheld counter. The average cell numbers for all images per treatment conditions were calculated and used for further statistical analysis. Each experiment was performed at least three independent times.

[2] = tested on: CD44; experiment: CD44 protein abundance in MDA-MB-231 cells (immunoblot, immunofluorescence); conditions: for protein abundance of CD44, immunoblotting: 100 pM TGFβ, 100 μg/mL rhPRG4 in the absence or presence of TGFβ; for CD44 immunostaining signal in organoids: 8 day-old organoids, absence or presence of TGFβ
Procedure: (§1) For immunofluorescence analysis of 3D-organoids, 600 MDA-MB-231 cells were grown within 80 μL of 50% Matrigel on top of 80 μL of 33% Matrigel coat in each well of ultra-low attachment 8-well chamber slides (Millipore-Sigma, USA). After DIC imaging on Day 8, the live multicellular structures were fixed with 4% formaldehyde, followed by permeabilization using 0.5% ice-cold Triton X-100 solution and blocking using 10% bovine serum albumin (BSA) in phosphate-buffered saline (PBS). For immunofluorescence analysis of monolayer cell culture, cells were seeded onto wells of a Falcon 8-well chamber culture slides (Corning Incorporated, USA), followed by fixing and permeabilization as described for the 3D cultures, and blocking with 5% BSA and 5% calf serum in PBS. Laminin and CD44 in cells were visualized by subjecting the three-dimensional or monolayer cultures to indirect immunofluorescence using a rat anti-laminin antibody (Abcam, Canada) and rat anti-CD44 antibody (Thermo Fisher, Canada) as the primary antibody, respectively, and Alexa 647-conjugated anti-rat IgG (ThermoFisher, Canada) as the secondary antibody. Actin in cells was visualized by incubating the fixed cultures with tetramethylrhodamine isothiocyanate (TRITC)-conjugated phalloidin (Millipore-Sigma, Canada). The DNA binding dye bisbenzimide (Hoechst 33342; Invitrogen, Canada) was used to detect nuclei. For CD44 knockdown analysis, the vector or CD44 shRNA transfected cells were identified by GFP signal. Immunofluorescence images were captured using an epifluorescence microscope with a 40× objective lens (Olympus Bx WI Confocal Microscope, Canada). Exposure times for laminin, actin, nuclei and GFP-specific signals were kept constant in each experiment. For each condition, 3 colonies/fields per experiment were captured, which were chosen as representative of the stained cells within each slide per experiments. Each experiment was repeated two independent times.
Cells were washed with PBS to remove all growth media. Appropriate volume of TNTE lysis buffer (50 mM Tris, 150 mM NaCl, 1 mM EDTA, 0.5% [v/v] Triton-X-100) containing protease and phosphatase inhibitors, was added to the cell monolayer and incubated at 4° C. under vigorous shaking for 20 minutes. Lysates were then collected in microcentrifuge tubes and centrifuged at 13,000 g for 10 minutes at 4° C. 5 μL of the lysate were subjected to protein concentration determination using Bradford-based protein assays (Bio-Rad Laboratories, Canada). Lysates were boiled for 3 minutes at 95° C. in dithiothreitol (DTT)-containing Laemmli sample buffer. […] Densitometric analyses were performed using Quantity One software (Bio-Rad Laboratories, Canada).

[3] = tested on: MDA-MB-231 cells; experiment: In vitro scratch assay (migration); conditions: 36 h
Procedure: 5×10^5 MDA-MB-231 cells were seeded in each well of a 12-well tissue culture plate and grown overnight to near confluency in complete growth medium and then overnight serum starved by incubating with 0.2% FBS-containing DMEM medium in a 5% CO2 humidified incubator at 37° C. incubator. […] Scratch closure in each well was followed by imaging the scratch and surrounding cells in each well at 3× objective of a DIC microscope (Olympus IX70) coupled to a digital camera at time 0 h and 36 h after initiating the scratch. Five images were captured along the vertical axis of the scratch for each experimental condition. The width of each scratch was measured at three different positions per image for a total of 15 measurements using ImageJ (National Institutes of Health, USA), and then averaged per experimental condition. The width average at 36 h was subtracted from the width average at 0 h and expressed relative to that at 0 h width for each experimental condition to obtain scratch closure, and expressed as percent scratch closure.

[4] = tested on: MDA-MB-231 cell-derived organoids; experiment: Laminin/actin fluorescence staining of 3D organoids; conditions: 8 day old organoids; absence or presence of TGFβ
Procedure: as §1, with “For CD44 knockdown analysis, the vector or CD44 shRNA transfected cells were identified by GFP signal. Immunofluorescence images were captured using an epifluorescence microscope with a 40× objective lens (Olympus Bx WI Confocal Microscope, Canada). Exposure times for laminin, actin, nuclei and GFP-specific signals were kept constant in each experiment. For each condition, 3 colonies/fields per experiment were captured, which were chosen as representative of the stained cells within each slide per experiments. Each experiment was repeated two independent times.” left out

| Substance | invasion of cells, stimulus alone vs untreated control ([1]; 100 pM TGFβ, 400 μg/mL LMWHA) | protein abundance of CD44, immunoblotting [2] | CD44 immunostaining signal in organoids [2] | scratch closure, TGFβ vs control well ([3]; 100 pM TGFβ) | basal lamina (laminin) status and actin organization [4] | invasion of cells in the absence or presence of TGFβ ([1]; 100 μg/mL rhPRG4, 100 pM TGFβ, 12 h) | cell invasion in the presence of LMWHA ([1]; 400 μg/mL LMWHA, 5 μg/mL CD44 neutralizing antibody, 100 μg/mL rhPRG4) | scratch closure in the absence or presence of TGFβ ([3]; 100 μg/mL rhPRG4) |
| --- | --- | --- | --- | --- | --- | --- | --- | --- |
| TGFβ: recombinant human mature transforming growth factor beta (R&D systems) [reference compound] | promote the invasion of MDA-MB-231 cells | promoted the protein abundance of CD44 | enhanced the CD44-immnostaining signal | increased the scratch closure process | disrupted basement membrane organization |  |  |  |
| rhPRG4: full-length recombinant human PRG4 (lubricin) glycoprotein produced by CHO-M cells; residues 25-1404 of SEQ ID NO:1 |  | reduced the protein abundance of CD44 | reduced this signal |  | promoted cortical actin organization and solid laminin ring formation | blocked the ability of MDA-MB-231 cells to be invasive | able to inhibit breast cancer cell invasion | significantly delayed the scratch closure process |
